The values that follow come from ChEMBL document CHEMBL1137198, “Discovery of thiadiazoles as a novel structural class of potent and selective PDE7 inhibitors. Part 2: metabolism-directed optimization studies towards orally bioavailable derivatives” (Bioorg Med Chem Lett, 2004).

Each structure is given as a SMILES string. Converted amounts (≈) assume the structure as drawn.

A short description of series [1]: Half life at 2.5 mg/kg po. It counts as ADME, organism-based. Further details: dose 2.5 mg/kg. To be noted: in vivo.
A short description of series [2]: Oral bioavailability (dose 2.5 mg/kg). It counts as ADME, organism-based. To be noted: eutheria, in vivo.
A short description of series [3]: Clearance at 0.5 mg/kg i.v. Further details: dose 0.5 mg/kg, route intravenous. The series is classed as ADME, organism-based. The note with it: in vivo, iv.
The nature of series [4]: Volume of distribution at 0.5 mg/kg i.v. The series is classed as ADME, organism-based. Further details: dose 0.5 mg/kg, route intravenous. The note with it: in vivo, iv.
Series [5] is described as follows: Solubility at pH 7.4. It counts as physicochemical. To be noted: buffer.
Series [6] in a line: Reduction in Clearance when compared with compound 1. It counts as ADME, organism-based. The note with it: in vivo.
Series [7] is described as follows: Reduction in clearance when compared with compound 1. It counts as ADME, organism-based. To be noted: in vivo.
Series [8] in a line: Inhibition of human Phosphodiesterase 7A1 or human phosphodiesterase 4D3 expressed in baculovirus infected Sf9 cells.

`Cn1nc(-c2ccc(Cl)cc2)s/c1=N\c1ccc(F)c(C(=O)O)c1` gave a half-life in series [1] of 1.96 h. The molecule also showed a bioavailability in series [2] of 49.3%. The molecule further gave a clearance in series [3] of 3.9 mL/min/kg. Further, in series [4] (read-out: Vd), the Vd was determined as 0.18 L/kg. Moreover, the solubility in series [5] (read-out: Solubility) stood at 145 µg/mL (≈ 399 µM).
`Cn1nc(-c2ccc(C(=O)NC(C)(C)CO)cc2)s/c1=N\C1CCCC(O)C1` (centres undefined): in series [6], the CL_Ratio worked out at 86%. The same molecule had a half-life in series [1] of 0.46 h. Moreover, the bioavailability in series [2] was found to be 63%. For the same molecule, in series [3], the clearance turned out to be 24.9 mL/min/kg. Also, the Vd in series [4] (read-out: Vd) amounted to 0.43 L/kg. The solubility in series [5] (read-out: Solubility) stood at 58 µg/mL (≈ 143 µM).
As to `Cn1nc(-c2ccc(C(N)=O)cc2)s/c1=N\C1CCCCC1`, the clearance in series [3] came out at 179 mL/min/kg. Moreover, in series [4] (read-out: Vd), the Vd amounted to 7.65 L/kg. Besides, the solubility in series [5] (read-out: Solubility) turned out to be 4 µg/mL (≈ 12.6 µM).
Consider `Cn1nc(-c2ccc(C(N)=O)cc2)s/c1=N\C1CCC(O)CC1` (centres undefined), for which the half-life in series [1] is 0.27 h. Further, the bioavailability in series [2] came out at 7%. In series [3], this molecule displayed a clearance of 66.9 mL/min/kg. For the same molecule, in series [4] (read-out: Vd), the Vd was 0.98 L/kg. In series [7], the CL_Ratio worked out at 62%.
`CN1CCN(C(=O)c2ccc(-c3nn(C)/c(=N/C4CCCCC4)s3)cc2)CC1`: in series [6], the CL_Ratio is on record as 75%. This molecule also showed a half-life in series [1] of 1.37 h. In addition, the bioavailability in series [2] amounted to 85%. The clearance in series [3] stood at 44.8 mL/min/kg. Besides, in series [4] (read-out: Vd), the Vd was found to be 2.59 L/kg. The solubility in series [5] (read-out: Solubility) is 350 µg/mL (≈ 876 µM).
Turning to `CC(=O)Nc1ccc(-c2nn(C)/c(=N/C3CCCCC3)s2)cc1`, the CL_Ratio in series [6] was found to be 58%. The molecule also had a half-life in series [1] of 0.74 h. The bioavailability in series [2] came to 19.6%. Also, in series [3], the clearance stood at 74.7 mL/min/kg. Further, the Vd in series [4] (read-out: Vd) was 3.3 L/kg. In addition, the solubility in series [5] (read-out: Solubility) came out at 8 µg/mL (≈ 24.2 µM).
Consider `Cn1nc(-c2cccc(C#N)c2)s/c1=N\c1cccc(C(=O)O)c1`, for which the half-life in series [1] is 4.75 h. The bioavailability in series [2] worked out at 37%. This molecule also registered a clearance in series [3] of 2.65 mL/min/kg. For the same molecule, in series [4] (read-out: Vd), the Vd worked out at 0.99 L/kg. Also, the solubility in series [5] (read-out: Solubility) came to 295 µg/mL (≈ 877 µM).
`Cn1nc(-c2ccc(S(C)(=O)=O)cc2)s/c1=N\c1cccc(C(=O)O)c1` had a half-life in series [1] of 2.7 h. The bioavailability in series [2] was 29.3%. For the same molecule, in series [3], the clearance turned out to be 15.8 mL/min/kg. The Vd in series [4] (read-out: Vd) came to 7.58 L/kg. The solubility in series [5] (read-out: Solubility) was determined as 370 µg/mL (≈ 950 µM).
With `Cn1nc(-c2ccc(S(C)(=O)=O)cc2)s/c1=N\C1CCCC(O)C1` (stereo in doubt), in series [6], the CL_Ratio came out at 93%. This molecule had a half-life in series [1] of 2 h. In series [2], the bioavailability turned out to be 100%. Moreover, in series [3], the clearance was 12.2 mL/min/kg. In addition, the Vd in series [4] (read-out: Vd) is 0.92 L/kg. Further, in series [5] (read-out: Solubility), the solubility came to 135 µg/mL (≈ 367 µM).
With `Cn1nc(-c2ccc(S(C)(=O)=O)cc2)s/c1=N\C1CCCC(O)C1` (stereo in doubt; 21a 9(R,R)), the CL_Ratio in series [6] was 91%. The T1/2 in series [1] is 2.5 h. The Cl in series [3] was 15.1 mL/min/kg. In addition, the Vd in series [4] was found to be 0.62 L/kg. Moreover, in series [5], the solubility was 160 µg/mL (≈ 435 µM).
Take `Cn1nc(-c2ccc(C(N)=O)cc2)s/c1=N\C1CCCC(O)C1` (stereo in doubt; cis): the half-life in series [1] is 1.42 h. Also, the F in series [2] stood at 61.2%. In series [8], this molecule displayed an IC50 of 1650 nM. In series [3], this molecule returned a clearance of 34.4 mL/min/kg. Besides, the Vd in series [4] (read-out: Vd) turned out to be 1.39 L/kg. Also, the CL_Ratio in series [7] was determined as 81%.
As for `Cn1nc(-c2ccc(C(N)=O)cc2)s/c1=N\C1CCCC(O)C1` (stereo in doubt; trans), in series [1], the T1/2 came to 1.8 h. The molecule further yielded a F in series [2] of 38.5%. Further, the Cl in series [3] amounted to 59.9 mL/min/kg. In series [4], the Vd was 1.78 L/kg. The CL_Ratio in series [7] is 67%.
In the case of `Cn1nc(-c2ccc(C(N)=O)cc2)s/c1=N\C1CCCCC1O` (stereo in doubt; trans), the half-life in series [1] was 0.31 h. Besides, the bioavailability in series [2] was determined as 24.7%. In addition, the clearance in series [3] amounted to 38.2 mL/min/kg. Moreover, in series [4] (read-out: Vd), the Vd was 1.47 L/kg. In series [7], the CL_Ratio was determined as 79%.
Regarding `CC(=O)Nc1ccc(-c2nn(C)/c(=N/C3CCCC(O)C3)s2)cc1` (trans isomer), the CL_Ratio in series [6] is 92%. Also, the half-life in series [1] was 2.3 h. The same molecule had a bioavailability in series [2] of 76%. In addition, in series [3], the clearance came to 13.3 mL/min/kg. Moreover, in series [4] (read-out: Vd), the Vd was 2.02 L/kg. Besides, the solubility in series [5] (read-out: Solubility) came to 350 µg/mL (≈ 1010 µM).

For orientation: half-life means the time needed for the level to fall by half in the phase considered. Low readings indicate fast loss, high ones slow loss. One may read the bioavailability as dose-corrected exposure relative to a reference, in per cent. A higher bioavailability goes with much systemic uptake. As usually defined, the clearance is the volume of plasma or blood freed of the substance per unit of time. High values mean a high capacity for elimination, low ones a low capacity for elimination. By Vd is commonly meant the apparent volume that relates the amount in the body to the concentration in plasma or blood. Broadly, the solubility is the concentration that dissolves in the medium under given conditions. Broadly, the IC50 is the concentration needed to halve the response being measured. A high value points to weaker potency.
